Results: US5063225A, “Benzothiazepines” (Roussel Uclaf, priority 1989, dated 1991)
Where a name gives a salt, the structure may show the parent alone. Read-outs that look alike come from different tables or passages of the source.

How the values were obtained:
[1] = test system: blood-platelets (rabbit PRP); assay: Blood-platelet aggregation, in vitro, on plasma rich in blood-platelets (PRP); format: cell-based; details: Oryctolagus cuniculus, 2 min, 2 minutes incubation, read-out: IC50 (concentration inhibiting the aggregation by 50%)
Excerpt: 2) Test for the Activity of Anti-Aggregation of Blood-Platelets. Blood-Platelet Aggregation, In Vitro, on Plasma Rich in Blood-Platelets (PRP)
Measurement of blood-platelet aggregation was made by the turbidimetric method of Born et al 1963, J. Physiol., Vol. 168, p. 178. Rabbit's blood was removed on Na citrate at 3.2% by cardiac puncture and the plasma rich in blood-platelets was obtained by centrifuging and adjustment of the number of blood-platelets to 300,000 per microliter. The aggregation was induced by collagen (40 micrograms per ml of PRP) or PAF acether (0.05 micromoles per liter of PRP). The compounds under test were incubated at different concentrations in the PRP 2 minutes before the aggregating agent. The results were expressed in IC50 (concentration inhibiting the aggregation by 50% relative to the control curves).

[2] = test system: broncho-constriction induced by serotonin; assay: Anti-serotoninergic activity: broncho-constriction in a guinea-pig induced by serotonin; format: in vivo; details: 1 mg/kg injected via jugular vein one minute before serotonin (3 to 5 micrograms/kg IV)
Description: 3) Test for Anti-Serotoninergic Activity Broncho-constriction in a guinea-pig induced by serotonin. The pulmonary resistance to insufflation was measured by the technique of "overflow" according to KONZETT et al [Arch. Ex. Pathol. Pharmakol, 1940, Vol. 195, p. 71]. The guinea-pigs were anaesthetized with urethane and the jugular vein was catherized to inject the products, and the trachea was catheterized to insert artificial ventilation. Broncho-constriction was induced by a dose of 3 to 5 micrograms/kg of serotonin injected intravenously and the antagonists were injected one minute before the induction of the broncho-spasm. It can be noted from the results of the table below that the products of the present Application have a strong anti-serontoninergic activity.

mouse = assay: Study of the acute toxicity; format: in vivo; details: single administration
Description: 4) Study of the Acute Toxicity
The lethal doses LD of the various compounds under test were evaluated after a single administration intraperitoneally or orally to a mouse.

[3] = test system: ventricular extrasystoles initiated by aconitine in rats; assay: Anti-arhythmic action in the rat (aconitine-induced ventricular extrasystoles); format: in vivo; details: relative to control animals
Description: 1) Anti-arhythmic action in the rat
Male rats weighing 300-350 g, anaesthetized by intraperitoneal route using 1.20 g/kg of urethane, were tracheotomized and subjected to artificial respiration (40-50 insufflations of 3 ml/minute). Needles were implanted subcutaneously to record the electro-cardiogram of the rats on the signal in the DII derivation. The products under test were administered by intravenous route or by oral route. After five minutes in the case of administration intravenously and one hour in the case of oral administration, the jugular vein of the rats was perfused with 10 micrograms/min. under 0.2 ml of an aconitine solution. The time taken for the first ventricular extrasystoles to appear was noted and the amount of aconitine perfused was calculated, then expressed as a function of the body weight of the animal.
The percentage of increase of the aconitine dose necessary to initiate the ventricular extrasystoles after treatment was calculated relative to the control animals.

[4] = induction by PAF-ACETHER (0.05 micromoles per liter of PRP)
[5] = induction by collagen (40 micrograms per ml of PRP)
[6] = IV, 5 mg/kg, five minutes before aconitine
[7] = oral (O), 25 mg/kg, one hour before aconitine

COc1ccccc1C1CSc2ccccc2N(CCN(C)C)C1=O.Cl (stereo not shown) [Example 12, 2,3-dihydro-5-[2-(dimethylamino)-ethyl]-3-(2-methoxy-phenyl)-1,5-benzothiazepin-4(5H)-one hydrochloride]
IC50 [1, 4]: 9 µM
IC50 [1, 5]: 56 µM
Percentage of inhibition of the broncho-constriction [2]: 64%
LD0 (maximum dose which did not cause any deaths over 8 days) (mouse; IP): 100 mg/kg
LD0 (maximum dose which did not cause any deaths over 8 days) (mouse; oral (O)): > 200 mg/kg

COc1ccc(C2CSc3ccccc3N(CCN3CCCC3)C2=O)cc1 (stereo not shown) [Example 1, 2,3-dihydro-3-(4-methoxy-phenyl)-5-[2-(1-pyrrolidinyl)-ethyl]-1,5-benzothiazepin-4(5H)-one (Z)-2-butenedioate]
IC50 [1, 4]: 78 µM
IC50 [1, 5]: 74 µM
Percentage of inhibition of the broncho-constriction [2]: 79%

COc1ccc(C2CSc3ccccc3N(CCN(C(C)C)C(C)C)C2=O)cc1 (racemic) [Example 9, (±)-5-[2-[[bis(1-methylethyl)]-amino]-ethyl]-2,3-dihydro-3-(4-methoxyphenyl)-1,5-benzothiazepin-4(5H)-one hydrochloride]
IC50 [1, 4]: 58 µM
IC50 [1, 5]: 66 µM

CCN(CC)CCN1C(=O)C(c2ccc(OC)cc2)CSc2ccccc21.O=C(O)C(=O)O (stereo not shown) [Example 5, 5-[2-(diethylamino)-ethyl]-2,3-dihydro-3-(4-methoxyphenyl)-1,5-benzothiazepin-4(5H)-one ethanedioate]
Percentage of inhibition of the broncho-constriction [2]: 87%

CN(C)CCN1C(=O)C(c2ccc(Cl)cc2)CSc2ccccc21.Cl (stereo not shown) [Example 11, 3-(4-chloro-phenyl)-2,3-dihydro-5-[2-(dimethylamino)-ethyl]-1,5-benzothiazepin-4(5H)-one hydrochloride]
IC50 [1, 4]: 40 µM
IC50 [1, 5]: 8 µM
Percentage of increase of the aconitine dose for initiating the extrasystoles [3, 6]: 32%
Percentage of increase of the aconitine dose for initiating the extrasystoles [3, 7]: 135%
Percentage of inhibition of the broncho-constriction [2]: 82%
LD0 (maximum dose which did not cause any deaths over 8 days) (mouse; IP): 80 mg/kg
LD0 (maximum dose which did not cause any deaths over 8 days) (mouse; oral (O)): 100 mg/kg

COc1ccc(C2CSc3ccccc3N(CCN3CCN(C)CC3)C2=O)cc1 (stereo not shown) [Example 7, 2,3-dihydro-3-(4-methoxyphenyl)-5-[2-(4-methyl-1-piperazinyl)-ethyl]-1,5-benzothiazepin-4(5H)-one dichlorhydrate]
Percentage of increase of the aconitine dose for initiating the extrasystoles [3, 6]: 25%
Percentage of increase of the aconitine dose for initiating the extrasystoles [3, 7]: 129%
LD0 (maximum dose which did not cause any deaths over 8 days) (mouse; IP): 100 mg/kg
LD0 (maximum dose which did not cause any deaths over 8 days) (mouse; oral (O)): 100 mg/kg

COc1ccc(C2CSc3ccccc3N(CCN(C)C)C2=O)cc1 (stereo not shown) [Example 13, 2,3-dihydro-5-8 2-(dimethylamino)-ethyl]-3-(4-methoxy phenyl)-1,5-benzothiazepin-4(5H)-one (E)-2-butenedioate]
Percentage of increase of the aconitine dose for initiating the extrasystoles [3, 6]: 24%
Percentage of increase of the aconitine dose for initiating the extrasystoles [3, 7]: 35%
Percentage of inhibition of the broncho-constriction [2]: 87%
LD0 (maximum dose which did not cause any deaths over 8 days) (mouse; IP): 80 mg/kg
LD0 (maximum dose which did not cause any deaths over 8 days) (mouse; oral (O)): > 200 mg/kg

COc1ccc(C2CSc3ccccc3N(CCCN(C)C)C2=O)cc1 (stereo not shown) [Example 6, 2,3-dihydro-5-[3-(dimethylamino)-propyl]-3-(4-methoxyphenyl)-1,5-benzothiazepin-4(5H)-one (E)-butenedioate]
Percentage of increase of the aconitine dose for initiating the extrasystoles [3, 6]: 142%
Percentage of increase of the aconitine dose for initiating the extrasystoles [3, 7]: > 188%
LD0 (maximum dose which did not cause any deaths over 8 days) (mouse; IP): 100 mg/kg
LD0 (maximum dose which did not cause any deaths over 8 days) (mouse; oral (O)): 100 mg/kg
